What all share (type): functional, cell-based
The test system of one assay is SW480. Description: Antiproliferative activity against human SW480 cells assessed as reduction in cell viability after 48 hrs by MTT assay. Particulars: for IC50: SW480, 48 h. (Tetrazolium dyes change colour on reduction, which living cells bring about.)
In a further assay the test system is SMMC-7721. Description: Antiproliferative activity against human SMMC7721 cells assessed as reduction in cell viability after 48 hrs by MTT assay. Particulars: for IC50: SMMC-7721, 48 h.
The test system of the next assay is HL-60. Put plainly: Antiproliferative activity against human HL60 cells assessed as reduction in cell viability after 48 hrs by MTT assay. The note with it: for IC50: HL-60, 48 h.
In a further assay the test system is MCF7. Put plainly: Antiproliferative activity against human MCF7 cells assessed as reduction in cell viability after 48 hrs by MTT assay. The note with it: MCF7, 48 h.
A further assay deals with A549. Put plainly: Antiproliferative activity against human A549 cells assessed as reduction in cell viability after 48 hrs by MTT assay. The note with it: for IC50: A549, 48 h.

SMILES strings stand for the structures. Activity calls are given as the source filed them. No cut-off for these calls is given here. Bounds are passed on as bounds.

As a reminder, the IC50 is the concentration that gives 50% inhibition.

As for `CO/N=C/C1=C/C[C@](C)(CCC=C(C)C)/C=C/[C@@H](OC(=O)C=C(C)C)[C@](C)(O)/C=C/C1=O`, the IC50 with SW480 was 2.63 µM; in the assay on SMMC-7721, 3.47 µM; in the assay with HL-60 it was 4.76 µM; in the assay with MCF7 it was 2.51 µM; with A549, 3.47 µM.

Turning to `CC(C)=CCC[C@]1(C)/C=C/[C@@H](OC(=O)C=C(C)C)[C@](C)(O)/C=C/C(=O)/C(C(=O)N2CCCC2)=C\C1`, the IC50 with SW480 came to 15.1 µM; with SMMC-7721 it was 14.9 µM; in the assay on HL-60 it was 12.3 µM; with MCF7 it was 17.2 µM; with A549 it was 13 µM.

Consider `CC(C)=CCC[C@](C)(/C=C/[C@@H](OC(=O)C=C(C)C)[C@](C)(O)/C=C/C(=O)/C=C/N1CCN(C)CC1)CC=O`, for which the IC50 in the assay on SW480 came to 12.4 µM; with SMMC-7721 it was 3.09 µM; in the assay on HL-60, 1.06 µM; with MCF7, 8.84 µM; in the assay on A549, 2.66 µM.

`CC(C)=CCC[C@]1(C)/C=C/[C@@H](OC(=O)C(C)C)[C@](C)(O)/C=C/C(=O)/C(CO)=C\C1`: the IC50 amounted to 8.51 µM with SW480; 10.4 µM in the assay with SMMC-7721; 4 µM with HL-60; 11.7 µM in the assay on MCF7; 10.8 µM in the assay with A549.

Regarding `CC(=O)OC/C1=C/C[C@](C)(CCC=C(C)C)/C=C/[C@@H](OC(=O)C=C(C)C)[C@](C)(OC(C)=O)/C=C/C1=O`, the IC50 was found to be 3.52 µM in the assay on SW480; 4.13 µM in the assay with SMMC-7721; 3.48 µM in the assay with HL-60; 3.99 µM with MCF7; 15.1 µM in the assay with A549.

For the compound `CC(C)=CCC[C@]1(C)/C=C/[C@@H](OC(=O)C=C(C)C)[C@](C)(O)/C=C/C(=O)/C(CN2CCOCC2)=C\C1`, the IC50 with SW480 came to 0.77 µM; with SMMC-7721 it was 1.14 µM; with HL-60, 1.11 µM; in the assay on MCF7 it was 0.52 µM; with A549, 0.66 µM.

As to `CC(C)=CCC[C@]1(C)/C=C/[C@@H](OC(=O)C=C(C)C)[C@](C)(O)/C=C/C(=O)/C(COC(=O)c2ccc([N+](=O)[O-])cc2)=C\C1`, the IC50 turned out to be 0.57 µM in the assay with SW480; 2.56 µM in the assay on SMMC-7721; 0.83 µM in the assay with HL-60; 0.67 µM in the assay with MCF7; 1.31 µM in the assay on A549.

For `COCO[C@@H]1/C=C/[C@@](C)(CCC=C(C)C)C/C=C(/CO)C(=O)/C=C/[C@@]1(C)O`, the IC50 in the assay with SW480, with SMMC-7721, in the assay on HL-60, in the assay on MCF7 and with A549 was more than 40 µM in each case.

Take `CC(C)=CCC[C@](C)(/C=C/[C@@H](OC(=O)C=C(C)C)[C@](C)(O)/C=C/C(=O)/C=C/N(C)C)CC=O`: the IC50 with SW480 stood at 10.3 µM; in the assay on SMMC-7721, 10.2 µM; with HL-60 it was 4.69 µM; in the assay with MCF7 it was 12.2 µM; in the assay with A549, 11.2 µM.

In the case of `CC(C)=CCC[C@]1(C)/C=C/[C@@H](OC(=O)C=C(C)C)[C@](C)(O)/C=C/[C@H](O)/C(CO)=C\C1`, the concentration for half-maximal inhibition (IC50) in the assay on SW480 is more than 40 µM; in the assay on SMMC-7721, more than 40 µM; in the assay on HL-60, more than 40 µM; in the assay on MCF7 it was 33 µM; with A549 it was more than 40 µM.

In the case of `CO[C@]1(C)/C=C/C(=O)/C(CO)=C\C[C@](C)(CCC=C(C)C)/C=C/[C@H]1OC(=O)C=C(C)C`, the IC50 in the assay with SW480 stood at 15.2 µM; in the assay with SMMC-7721 it was 15.8 µM; with HL-60, 14.3 µM; in the assay with MCF7, 14.3 µM; in the assay with A549, 14.3 µM.

As for `COC/C1=C/C[C@](C)(CCC=C(C)C)/C=C/[C@@H](OC(=O)C=C(C)C)[C@](C)(O)/C=C/C1=O`, the IC50 was 3.85 µM in the assay on SW480; 11 µM in the assay on SMMC-7721; 3.07 µM in the assay on HL-60; 4.13 µM in the assay on MCF7; 3.95 µM in the assay on A549.

Take `CCCC(=O)O[C@@H]1/C=C/[C@@](C)(CCC=C(C)C)C/C=C(/CO)C(=O)/C=C/[C@@]1(C)O`: the IC50 in the assay with SW480 came out at 2.51 µM; in the assay with SMMC-7721, 7.81 µM; with HL-60 it was 4.18 µM; in the assay with MCF7 it was 6.04 µM; with A549, 4.1 µM.

`CC(C)=CCC[C@](C)(/C=C/[C@@H](OC(=O)C=C(C)C)[C@](C)(O)/C=C/C(=O)/C=C/N1CCOCC1)CC=O`: the IC50 with SW480 is 9.88 µM; in the assay on SMMC-7721 it was 7.44 µM; in the assay on HL-60 it was 4.06 µM; in the assay on MCF7, 12.3 µM; in the assay with A549, 8.73 µM.

Take `CC(C)=CCC[C@]1(C)/C=C/[C@@H](OC(=O)C=C(C)C)[C@](C)(O)/C=C/C(=O)/C(CN=[N+]=[N-])=C\C1`: the IC50 came out at 4.23 µM in the assay with SW480; 3.08 µM with SMMC-7721; 0.91 µM with HL-60; 4.89 µM in the assay with MCF7; 1.72 µM in the assay on A549.

Turning to `CC(=O)OC/C1=C/C[C@](C)(CCC=C(C)C)/C=C/[C@@H](OC(=O)C=C(C)C)[C@](C)(O)/C=C/C1=O`, the IC50 with SW480 is 2.95 to 4.63 µM; with SMMC-7721, 2.95 to 4.63 µM; with HL-60 it was 2.95 to 4.63 µM; in the assay with MCF7, 4.51 µM; in the assay on A549, 2.95 to 4.63 µM.

`CCN(CC)C/C1=C/C[C@](C)(CCC=C(C)C)/C=C/[C@@H](OC(=O)C=C(C)C)[C@](C)(O)/C=C/C1=O`: the concentration for half-maximal inhibition (IC50) in the assay on SW480 came out at 0.27 µM; in the assay with SMMC-7721, 0.57 µM; in the assay on HL-60 it was 0.14 µM; with MCF7 it was 0.13 µM; in the assay with A549 it was 0.13 µM.

For `CC(C)=CCC[C@]1(C)/C=C/[C@@H](OC(=O)C=C(C)C)[C@](C)(O)/C=C/C(=O)/C(C(=O)N2CCN(C)CC2)=C\C1`, the IC50 in the assay with SW480 was 4.52 µM; with SMMC-7721 it was 11.7 µM; in the assay with HL-60, 5.47 µM; in the assay on MCF7, 6.3 µM; in the assay on A549, 8.44 µM.

`CC(C)=CCC[C@]1(C)/C=C/[C@@H](OC(=O)C=C(C)C)[C@](C)(O)/C=C/C(=O)/C(Cn2cc(CO)nn2)=C\C1`: the IC50 in the assay on SW480 was determined as 2.87 µM; in the assay with SMMC-7721, 3.56 µM; in the assay on HL-60 it was 3.2 µM; with MCF7, 2.93 µM; in the assay with A549, 3.47 µM.

Turning to `CCN(CC)C(=O)/C1=C/C[C@](C)(CCC=C(C)C)/C=C/[C@@H](OC(=O)C=C(C)C)[C@](C)(O)/C=C/C1=O`, the IC50 in the assay on SW480 worked out at 11.7 µM; with SMMC-7721, 13.8 µM; in the assay with HL-60, 9.08 µM; with MCF7 it was 12.1 µM; in the assay on A549, 11.3 µM.

In the case of `COCOC/C1=C/C[C@](C)(CCC=C(C)C)/C=C/[C@@H](OC(=O)C=C(C)C)[C@](C)(O)/C=C/C1=O`, the IC50 in the assay with SW480 was determined as 3.71 µM; in the assay on SMMC-7721, 3.25 µM; with HL-60, 2.84 µM; with MCF7 it was 3.12 µM; with A549, 2.98 µM.

On to `CSC(=S)OC/C1=C/C[C@](C)(CCC=C(C)C)/C=C/[C@@H](OC(=O)C=C(C)C)[C@](C)(O)/C=C/C1=O`, for which the IC50 in the assay with SW480 worked out at 0.39 µM; in the assay with SMMC-7721, 0.72 µM; with HL-60 it was 0.18 µM; with MCF7, 0.9 µM; in the assay on A549, 0.38 µM.

As for `CC(C)=CCC[C@]1(C)/C=C/[C@@H](OC(=O)C=C(C)C)[C@](C)(O)/C=C/C(=O)/C(C(=O)O)=C\C1`, the half-inhibitory concentration (IC50) with SW480 is more than 10 µM; in the assay with SMMC-7721 it was more than 10 µM; in the assay with HL-60, more than 10 µM; in the assay on MCF7, 16.1 µM; with A549, more than 10 µM.

For `CC(C)=CCC[C@]1(C)/C=C/[C@@H](OC(=O)C=C(C)C)[C@](C)(O)/C=C/C(=O)/C(CO[Si](C)(C)C(C)(C)C)=C\C1`, the IC50 is 3.35 µM in the assay on SW480; 4 µM in the assay with SMMC-7721; 2.77 µM with HL-60; 6.04 µM with MCF7; 4.2 µM in the assay with A549.

As for `CC(C)=CCC[C@]1(C)/C=C/[C@@H](OC(=O)C=C(C)C)[C@](C)(O)/C=C/C(=O)/C(CN(C(C)C)C(C)C)=C\C1`, the IC50 in the assay on SW480 worked out at 0.75 µM; with SMMC-7721, 0.34 µM; with HL-60 it was 0.74 µM; in the assay with MCF7, 0.78 µM; in the assay with A549, 0.65 µM.

On to `CC(C)=CCC[C@]1(C)/C=C/[C@@H](OC(=O)C=C(C)C)[C@](C)(O)/C=C/C(=O)/C(CO[Si](c2ccccc2)(c2ccccc2)C(C)(C)C)=C\C1`, for which the IC50 in the assay on SW480 worked out at 20.7 µM; in the assay with SMMC-7721, 38 µM; in the assay with HL-60, 14.4 µM; in the assay with MCF7 it was 15.8 µM; in the assay on A549, 13 µM.

On to `CO[C@@H]1/C=C/[C@@](C)(O)[C@H](OC(=O)C=C(C)C)/C=C/[C@@](C)(CCC=C(C)C)C/C=C\1CO`, for which the IC50 came out at 12.8 µM in the assay on SW480; 38.8 µM in the assay with SMMC-7721; 13.8 µM with HL-60; 33.3 µM in the assay with MCF7; 11.2 µM in the assay on A549.

Regarding `CC(C)=CCC[C@]1(C)/C=C/[C@@H](OC(=O)C=C(C)C)[C@](C)(O)/C=C/C(=O)/C(C=O)=C\C1`, the outcome in the assay on SW480, in the assay with SMMC-7721, in the assay on HL-60 and with A549 was Active. Also, the IC50 with MCF7 was determined as 12.6 µM.

On to `CC(C)=CCC[C@]1(C)/C=C/[C@@H](OC(=O)c2ccccc2)[C@](C)(O)/C=C/C(=O)/C(CO)=C\C1`, for which the IC50 with SW480 was 10.3 µM; in the assay with SMMC-7721, 20.3 µM; in the assay with HL-60 it was 22.6 µM; in the assay with MCF7, 27 µM; in the assay on A549, 15.8 µM.

As to `CC[Si](CC)(CC)OC/C1=C/C[C@](C)(CCC=C(C)C)/C=C/[C@@H](OC(=O)C=C(C)C)[C@](C)(O)/C=C/C1=O`, the IC50 worked out at 2.69 µM in the assay on SW480; 3.46 µM with SMMC-7721; 2.81 µM with HL-60; 3.15 µM in the assay on MCF7; 3.1 µM with A549.

Take `CO[C@H]1/C=C/[C@@](C)(O)[C@H](OC(=O)C=C(C)C)/C=C/[C@@](C)(CCC=C(C)C)C/C=C\1CO`: the IC50 in the assay with SW480 is 16.6 µM; in the assay on SMMC-7721, 38.1 µM; in the assay on HL-60, 14.8 µM; in the assay with MCF7, 18.5 µM; with A549 it was 19.2 µM.
